The values below come from patent US20220347158A1, “Methods of Treating Conditions Related to the S1P1 Receptor” (Arena Pharmaceuticals, Inc., priority 2019, published 2022).

Structures are written as SMILES. Like-named read-outs stand apart in the source and are kept apart here.

The test system of one data set is lymphocyte. Format: in vivo, human. As to the method:
In another Phase 1 study, 30 adult subjects received 2 mg of Compound 1 qd (Days 1 to 7), then 3 mg of Compound 1 qd (Days 8 to 12), and finally 4 mg of Compound 1 qd (Days 13 to 14). […] After treatment with Compound 1, lymphocyte reductions of 46% and 65% for Day 8 and Day 15, respectively, were observed.

The test system of data set [1] is UC patients. Briefly: Open-label extension study after the Phase 2 UC study. Format: in vivo, human. The settings on record: up to 46 weeks. As to the method:
(§1) Compound 1, or a pharmaceutically acceptable salt, solvate, or hydrate thereof, is an orally administered, selective, synthetic sphingosine 1-phosphate (S1P) receptor 1, 4, 5 modulator. […] Its safety and tolerability have been evaluated in Phase 1 studies with healthy adult subjects at single doses up to 5 mg and repeated doses up to 4 mg once daily (“QD” or “qd”).

Data set [2] has as its system peripheral blood lymphocytes. Put plainly: Phase 1, single ascending dose clinical trial in healthy subjects. It is filed as in vivo, human.
Data set [3] has as its system peripheral lymphocyte counts. Put plainly: Phase 1 studies taken together (safety, tolerability, lymphocyte counts). It is filed as in vivo, human. As to the method:
Compound 1, or a pharmaceutically acceptable salt, solvate, or hydrate thereof, is an orally administered, selective, synthetic sphingosine 1-phosphate (S1P) receptor 1, 4, 5 modulator. […] Its safety and tolerability have been evaluated in Phase 1 studies with healthy adult subjects at single doses up to 5 mg and repeated doses up to 4 mg once daily (“QD” or “qd”). […] In another Phase 1 study, 30 adult subjects received 2 mg of Compound 1 qd (Days 1 to 7), then 3 mg of Compound 1 qd (Days 8 to 12), and finally 4 mg of Compound 1 qd (Days 13 to 14). […] After treatment with Compound 1, lymphocyte reductions of 46% and 65% for Day 8 and Day 15, respectively, were observed.

The subject of data set [4] is peripheral lymphocyte counts. Briefly: Phase 1, multiple ascending dose clinical trial in healthy subjects. Format: in vivo, human. The source says: […] […] After treatment with Compound 1, lymphocyte reductions of 46% and 65% for Day 8 and Day 15, respectively, were observed.
Data set [5] deals with UC patients. Put plainly: Phase 2 dose-ranging study in UC patients. It is filed as in vivo, human.
Source text: Further, while UC and CD have overlapping features, there are differences in pathophysiology, disease location, and extent of disease that may dictate different doses for the treatment of UC and CD. Described herein is the elucidation of safe and efficacious dosing of Compound 1 for the treatment of CD.
as §1

In a further data set the test system is subjects with CD. The following applies: Phase 2; cited from earlier work.

As for `O=C(O)C[C@H]1CCc2c1[nH]c1ccc(OCc3ccc(C4CCCC4)c(C(F)(F)F)c3)cc21` [Compound 1, (R)-2-(7-(4-cyclopentyl-3-(trifluoromethyl)benzyloxy) -1,2,3,4-tetrahydrocyclopenta[b]indol-3-yl)acetic acid], the lymphocyte reductions in the data set with lymphocyte (Day 8 (after 2 mg qd Days 1 to 7)) was found to be 46%; in the data set on lymphocyte (Day 15 (after 2 mg Days 1 to 7, 3 mg Days 8 to 12, 4 mg Days 13 to 14)) it was 65%. Further, in the data set on UC patients [1], the “beneficial effects in open-label extension” value is recorded as “Sustained beneficial effects”. The “decline in the absolute number of peripheral blood lymphocytes” value in data set [2] (single 3 mg and 5 mg doses) is reported as “clear dose-responsive decline”. The “declines in peripheral blood lymphocytes” value in data set [2] (single doses up to 1 mg) is listed as “only modest declines”. Further, in data set [3] (Phase 1 studies together, 2 mg and 3 mg), the “reductions in peripheral lymphocyte counts” value is “significant reductions”. Besides, the tolerability and safety result in data set [3] (Phase 1 studies together, doses up to 4 mg) is on record as “well-tolerated with no significant safety findings”. In addition, the safety and tolerability result in data set [3] (adult subjects treated at various doses, Phase 1 single doses up to 5 mg, repeated doses up to 4 mg once daily) was “safe and well-tolerated”; in data set [4] (up to 21 days of dosing with 2 mg or 3 mg), “safe and well-tolerated”. In data set [4] (up to 21 days of dosing, 2 mg and 3 mg), the peripheral lymphocyte counts entry is reported as “reduced peripheral lymphocyte counts”. Further, in the data set on UC patients [5] (UC patients, 2 mg QD for 12 weeks), the “endoscopic and symptomatic improvements versus placebo” value is “clinically meaningful and statistically significant endoscopic and symptomatic improvements”. For the same compound, the efficacy over placebo result in the data set with UC patients [5] (subjects with UC, 2 mg) was “improved efficacy”.

For `CCCCCCCOc1ccc(CCC(N)(CO)CO)cc1C(F)(F)F` [amiselimod], the efficacy over placebo entry in the data set on subjects with CD is reported as “did not result in improved efficacy over placebo”.
